# From patent publication US7423181B2, “Aminoalkoxy-functional chalcones” (Lica Pharmaceuticals A/S, priority 2002, dated 2008)
# Where two headings read alike, the source gives them in different places.
# Experiments:
# [1] = system: Plasmodium falciparum 3D7; assay: Plasmodium falciparum assay; assay type: cell-based
# Plasmodium berghei K173 = conditions: NMRI female mice; for effect on development of the infection: multiple oral administrations, FIG. 7
# [2] = system: panel of six strains Helicobacter pylori; assay: MIC determination against Helicobacter pylori (agar dilution); conditions: read-out: MICs against Helicobacter pylori
# [3] = system: Bacteroides fragilis, Clostridium perfringens, Clostridium difficele; assay type: cell-based; conditions: single concentration of compound (100 μM)
# [4] = system: dihydroorotate dehydrogenase (DHODH); assay: DHODH assay; assay type: biochemical; conditions: at 10 μM
# Method: 100 μl chalcone or 0.1 M Tris-HCl pH 8.0 is added to a well in a 96-wells microtiter plate. Then 50 μl enzyme dilution is added. The microtiter plate is placed in the Powerwavex340 and the enzymatic reactions starts when adding 100 μl assay mixture. The reaction are measured every 20 sec. for 10 min. The samples with chalcones are compared with the samples with 0.1 M Tris-HCl pH 8.0 and the percent inhibition is calculated.
# Enzyme dilution: The solution of recombinant purified enzyme is dissolved in 0.1 M Tris-HCl pH 8 to give an initial velocity of 0.04-0.05 ΔA/min.
# 2,6-dichlorophenolindophenol (DCIP)-stock solution: 40 mg DCIP and 10 ml 99% Ethanol are mixed for 10 min at RT. Then 100 μl 1.0 M Tris-HCl pH 8 and miliQ H2O are added to a final volume of 100 ml. The A600 of the DCIP-stock solution are measured in a microtiter plate on the Powerwavex340 (Bio-Tek instruments,Inc.)
# […]: 25 mM dihydroorotate stock-solution is prepared by first dissolving in the same amount of mol NaOH and then miliQ H2O is added to the final volume.
# Assay mix (10 ml solution): 600 μl of DHODH-stock solution and X ml (depending on the A600 value of stock-solution) DCIP to a final A600=2.5 are mixed. Then 0.1 M Tris-HCl pH 8.0 are added to a final volume of 10 ml.
# Preparation of compound soluton: A 10 mM stock-solution of compound (e.g. a chalcone derivative) is made in dimethylsulfoxid (DMSO). The compound is then diluted in 0.1 M Tris-HCl pH 8 to the test concentrations. The final DMSO concentration in the sample is 10%
# [5] = system: Plasmodium falciparum DD2(Cq-res); conditions: read-out: Plasmodium falciparum IC50
# [6] = Determination of metabolic stability (liver microsomes); assay type: in vitro ADME; conditions: rat liver microsomes, 20 μM, 15 min
# Method: Determination of Metabolic Stability
# Incubations were performed with Wistar rat liver microsomes (0.25 mg/ml) in 2% sodium bicarbonate solution. NADP (0.13 mg/ml), glucose-6-phosphate (0.63 mg/ml) and glucose-6-phosphate dehydrogenase (0.38 units/ml) were used as NADPH generation system and UDPGA (0.48 mg/ml) was added to include the phase II reaction, glucuronic acid conjugation, in the assay. After 5 minutes of pre-incubation the reaction was started by addition of the test article to give a final concentration of 20 μM. Samples were incubated for 15 min at 37° C. and the reactions were terminated by addition of equal volumes of acetonitrile. Blank incubations were performed at the same concentration but without addition of microsomes. Both blank and microsome-containing samples were made in replicats of three. Prior to analysis samples were centrifuged for 10 min. at 3500 rpm,HPLC system:
# Initial conditions were 40% mobile phase A (acetonitrile) and 60% mobile phase B (10 mM ammonium acetate pH 9.5). During the first 20 minutes, the mobile phase was changed via a linear gradient to 90% A and 10% B. This was followed by a 5 minutes linear gradient to initial conditions, which were maintained for 5 min. The flow rate was 0.20 m)/min and injection volume 10 μl.
# [7] = mice
# [8] = system: Plasmodium falciparum K1(Cq-res); conditions: read-out: Plasmodium falciparum IC50
# [9] = system: Plasmodium falciparum 7G8(Cq-res); conditions: read-out: Plasmodium falciparum IC50
# Eschericia coli ESS = assay: MIC determination in broth microdilution assay; conditions: H: Eschericia coli ESS
# [10] = system: panel of 10 different non-fastidious bacteria; assay: Screening against panel of non-fastidious bacteria
# S.aureus ATCC33591 = conditions: time-kill curve FIG. 2, S.aureus ATCC33591
# [11] = system: Staphylococcus aureus ATCC29213; assay: MIC determination in broth microdilution assay; conditions: A: Staphylococcus aureus ATCC29213
# [12] = system: Staphylococcus aureus ATCC33591(resistant to methicillin); assay: MIC determination in broth microdilution assay; conditions: B: Staphylococcus aureus ATCC33591(resistant to methicillin)
# [13] = system: Enterococcus faecalis ATCC29212; assay: MIC determination in broth microdilution assay; conditions: D: Enterococcus faecalis ATCC29212
# [14] = system: Streptococcus pneumoniae #998 (clinical isolate); assay: MIC determination in broth microdilution assay; conditions: F: Streptococcus pneumoniae #998
# [15] = system: Enterococcus faecium #17501 (vancomycin-resistant clinical isolate); assay: MIC determination in broth microdilution assay; conditions: E: Enterococcus faecium #17501 (vancomycin-resistant)
# S.aureus ATCC29213 = conditions: time-kill curve FIG. 3, S.aureus ATCC29213
# [16] = system: parasitic or bacterial infections; assay: In vivo potency of chalcones
# [17] = system: cutaneous and visceral Leishmania infection; conditions: cited from earlier work
# [18] = Determination of solubility; assay type: physicochemical; conditions: reference chalcones
# Method: Determination of Solubility
# Solubility of the compounds was determined by preparing a saturated solution of compound in 0.3 M phosphate buffer (pH 7.4±0.3) in a brown glass tube. The suspensions were rotated slowly for 24 hours. Aliquots were centrifuged for 10 minutes at 14.000 rpm and supernatants were diluted in 40% (v/v) acetonitrile in water prior to HPLC analysis. Concentrations of analytes were quantified against a standard curve and used as term of solubility. The HPLC-UV method used for the assessment of solubility is the same as used in the in vitro metabolism assay.
# P.yoelii and P.berghei = conditions: cited from earlier work
# Pharmacokinetic studies = assay type: in vivo, mice; conditions: for bioavailability: in mice
# Method: Samples of serum were taken at defined timepoints.
# The supernatant was used for the analysis.
# The flow rate was […], injection volume 10 μl.
# [19] = Plasmodium falciparum 3D7 (Table 2), read-out: IC50
structure (smiles),measurement,setting,value
"Cc1ccccc1-c1ccc(OCCN(C)C)c(/C=C/C(=O)c2ccccc2CN(C)C)c1 [Compound C035, (E)-3-[4-(2-Dimethylamino-ethoxy)-2′-methyl-biphenyl-3-yl]-1-(2-dimethylaminomethyl-phenyl)-propenone]",IC50,[1]; [19],100 nM
same,effect on parasitaemia,"Plasmodium berghei K173; multiple intra venous administrations, FIG. 6",significant decrease in the parasitaemia
"CC(=O)Nc1cccc(C(=O)/C=C/c2cc(-c3cc(C)cc(C)c3)ccc2OCCN(C)C)c1 [Compound C088, N-(3-{3-[4-(2-Dimethylamino-ethoxy)-3′,5′-dimethyl-biphenyl-3-yl]-(E)-acryloyl}-phenyl)-acetamide]",MIC,[2],12 to 25 µM
"COc1ccc(C(=O)/C=C/c2cc(-c3cc(C)cc(C)c3)ccc2OCCN(C)C)c(Cl)c1 [Compound C026, (E)-1-(2-Chloro-4-methoxy-phenyl)-3-[4-(2-dimethylamino-ethoxy)-3′,5′-dimethyl-biphenyl-3-yl]-propenone]",activity against anaerobic bacteria,[3],activity against all microorganisms within the test panel
same,Inhibition of DHODH,[4],19%
"CN(C)CCOc1ccc(-c2ccccc2C(F)(F)F)cc1/C=C/C(=O)c1ccccc1CN(C)C [Compound C130, (E)-3-[4-(2-Dimethylamino-ethoxy)-2′-trifluoromethyl-biphenyl-3-yl]-1-(2-dimethylaminomethyl-phenyl)-propenone]",IC50,"[1]; 3D7(Cq-sen) (Table 3), read-out: Plasmodium falciparum IC50",30 nM
same,IC50,[1]; [19],30 nM
same,times more potent than LicA,"[1]; dose-response curve at Plasmodium falciparum, FIG. 4",213 times
same,IC50,[5],60 nM
same,Metabolic turn-over in vitro,[6],6%
same,Metabolic turn-over,[7],77%
same,IC50,[8],40 nM
same,IC50,[9],50 nM
same,effect on development of the infection,Plasmodium berghei K173,inhibit the development of the infection
"COc1ccc(C(=O)/C=C/c2cc(-c3cc(C)cc(C)c3)ccc2OCCN(C)C)cc1 [Compound C023, (E)-3-[4-(2′-Dimethylamino-ethoxy)-3′,5′-dimethyl-biphenyl-3-yl]-1-(4-methoxy-phenyl)-propenone]",MIC,Eschericia coli ESS,9.4 µM
same,potency against Gram-positive pathogens in comparison with Licochalcone A,[10],increased potency
same,MIC,S.aureus ATCC33591,9.4 µM
same,bactericidal action (CFU counts per ml above the MIC),S.aureus ATCC33591,bactericidal
same,MIC,[11],4.7 µM
same,MIC,[12],4.7 µM
same,MIC,[13],4.7 µM
same,MIC,[14],18.8 µM
same,MIC,[15],4.7 µM
"COc1ccc(C(=O)/C=C/c2cc(C(C)(C)C)cc(C(C)(C)C)c2OCCN(C)C)c(F)c1 [Compound C028, (E)-3-[3,5-Di-tert-butyl-2-(2-dimethylamino-ethoxy)-phenyl]-1-(2-fluoro-4-methoxy-phenyl)-propenone]",activity against anaerobic bacteria,[3],activity against all microorganisms within the test panel
same,Inhibition of DHODH,[4],23%
"CCN(CC)Cc1ccccc1C(=O)/C=C/c1cc(-c2cc(C)cc(C)c2)ccc1OCCN(C)C [Compound C030, (E)-1-(2-Diethylaminomethyl-phenyl)-3-[4-(2-dimethylamino-ethoxy)-3′,5′-dimethyl-biphenyl-3-yl]-propenone]",potency against Gram-positive pathogens in comparison with Licochalcone A,[10],increased potency
same,MIC,S.aureus ATCC29213,18.8 µM
same,bactericidal action (CFU counts per ml above the MIC),S.aureus ATCC29213,bactericidal
"Cc1ccccc1-c1ccc(OCCN(C)C)c(/C=C/C(=O)c2ccccc2CN2CCCC2)c1 [Compound C119, (E)-3-[4-(2-Dimethylamino-ethoxy)-2′-methyl-biphenyl-3-yl]-1-(2-pyrrolidin-1-ylmethyl-phenyl)-propenone]",effect on development of the infection,Plasmodium berghei K173,inhibit the development of the infection
"CN(C)CCOc1ccc(-c2ccccc2Cl)cc1/C=C/C(=O)c1ccccc1CN(C)C [Compound C128, (E)-3-[2′-Chloro-4-(2-dimethylamino-ethoxy)-biphenyl-3-yl]-1-(2-dimethylaminomethyl-phenyl)-propenone]",effect on development of the infection,Plasmodium berghei K173,inhibit the development of the infection
"C=CC(C)(C)c1cc(/C=C/C(=O)c2ccc(O)cc2)c(OC)cc1O [LicA, Licochalcone A]",MIC,Eschericia coli ESS,300.0 µM
same,bactericidal activity against common pathogenic Gram-positive non-fastidious bacteria,[10]; Gram-positive bacteria,moderate bactericidal activity
same,activity against Eschericia coli,[10]; prototype pathogenic Gram-negative bacterium,modest or no activity
same,in vivo potency,[16],50 mg/kg
same,efficacy in experimental animal models,[17],efficacy in experimental animal models of cutaneous and visceral Leishmania infection
same,Metabolic turn-over in vitro,[6],100%
same,Metabolic turn-over in vitro,[6]; listed as Lica,100%
same,aqueous solubility,[18],approximately 0.01 mg/ml
same,protection of mice from infection,P.yoelii and P.berghei,protects mice from infection with P.yoelii and P.berghei
same,MIC,[11],37.5 µM
same,bioavailability,Pharmacokinetic studies,< 6%
same,t1/2 in vivo,Pharmacokinetic studies; in vivo,10 min
same,MIC,[12],37.5 µM
same,Inhibition of DHODH,[4],25%
same,MIC,[13],37.5 µM
same,MIC,[14],75.0 µM
same,MIC,[15],37.5 µM
"COc1ccc(C(=O)/C=C/c2cccc(OCCN(C)C)c2)c(OC)c1OC [Compound C043, (E)-3-[3-(2-Dimethylamino-ethoxy)-phenyl]-1-(2,3,4-trimethoxy-phenyl)-propenone]",bioavailability,Pharmacokinetic studies,42%
"COc1ccc(C(=O)/C=C/c2cc(-c3ccccc3C)ccc2OCCN(C)C)c(CN(C)C)c1 [Compound C114, (E)-3-[4-(2-Dimethylamino-ethoxy)-2′-methyl-biphenyl-3-yl]-1-(2-imethylaminomethyl-4-methoxy-phenyl)-propenone]",effect on development of the infection,Plasmodium berghei K173,inhibit the development of the infection
